Literature values in patent EP3067353A1, “A PROCESS FOR THE PREPARATION OF SOLIFENACIN SALTS AND THEIR INCLUSION INTO PHARMACEUTICAL DOSAGE FORMS” (KRKA, D.D., Novo Mesto, priority 2008, dated 2010).
Structures can show the parent of a compound that is named as a salt.

Tests used:
[1] = relative humidity of 70% (room temperature)

**Q.** What does the source list for `O=C(O[C@H]1CN2CCC1CC2)N1CCc2ccccc2[C@@H]1c1ccccc1` [hydrochloride]?
**A.** hygroscopicity [1]: so hydroscopic as to deliquence; impurities during long term storage: increase of impurities during long term storage
